Experimental data published in EP4273147A1, “SUBSTITUTED SPIROLACTAMS, SALTS THEREOF AND THEIR USE AS HERBICIDALLY ACTIVE SUBSTANCES” (Bayer Aktiengesellschaft, priority 2022, dated 2023).

Legend:
ABUTH [1] = assay: Herbicidal pre-emergence action (Table A1); type: in vivo, Abutilon theophrasti; conditions: application rate 1280 g/ha; visual grading after ca. 3 weeks vs untreated controls (100% = plants have died off, 0% = as control plants)
How it was run: (§1)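 Seeds covered with soil after sowing in sandy loam; every pot carried one monocotyledonous and one dicotyledonous weed species as a double sowing.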

ECHCG [2] = assay: Herbicidal pre-emergence action (Table A2); type: in vivo, Echinochloa crus-galli; conditions: application rate 320 g/ha; visual grading after ca. 3 weeks
How it was run: as §1

LOLRI [3] = assay: Herbicidal pre-emergence action (Table A3); type: in vivo, Lolium rigidum; conditions: Lolium rigidum, pre-emergence, 504 h, application rate 320 g/ha; visual grading after ca. 3 weeks; read-out: pre-emergence activity against LOLRI
How it was run: as §1

MATIN [4] = assay: Herbicidal pre-emergence action (Table A4); type: in vivo, Matricaria inodora; conditions: application rate 320 g/ha; visual grading after ca. 3 weeks
How it was run: as §1

SETVI [5] = assay: Herbicidal pre-emergence action (Table A5); type: in vivo, Setaria viridis; conditions: application rate 320 g/ha; visual grading after ca. 3 weeks
How it was run: as §1

STEME [6] = assay: Herbicidal pre-emergence action (Table A6); type: in vivo, Stellaria media; conditions: application rate 320 g/ha; visual grading after ca. 3 weeks
How it was run: as §1

POAAN [7] = assay: Herbicidal pre-emergence action (Table A7); type: in vivo, Poa annua; conditions: Poa annua, pre-emergence, 504 h; application rate 320 g/ha; visual grading after ca. 3 weeks; read-out: pre-emergence activity against POAAN
How it was run: as §1

ALOMY [8] = assay: Herbicidal pre-emergence action (Table A9); type: in vivo, Alopecurus myosuroides; conditions: application rate 1280 g/ha; visual grading after ca. 3 weeks
How it was run: as §1

KCHSC [9] = assay: Herbicidal pre-emergence action (Table A10); type: in vivo, Kochia scoparia; conditions: application rate 320 g/ha; visual grading after ca. 3 weeks
How it was run: as §1

VERPE [10] = assay: Herbicidal pre-emergence action (Table A11); type: in vivo, Veronica persica; conditions: application rate 320 g/ha; visual grading after ca. 3 weeks
How it was run: as §1

DIGSA [11] = assay: Herbicidal pre-emergence action (Table A12); type: in vivo, Digitaria sanguinalis; conditions: application rate 320 g/ha; visual grading after ca. 3 weeks
How it was run: as §1

ABUTH [12] = assay: Herbicidal post-emergence action (Table B1); type: in vivo, Abutilon theophrasti; conditions: application rate 320 g/ha; treated at one-leaf stage; rated visually after about 3 weeks vs untreated controls (100% = plants have died, 0% = like control plants)
How it was run: (§2)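 Plants grown from seed in a greenhouse are treated at the one-leaf stage, two to three weeks after sowing. They then stay under optimum growth conditions for about three weeks before herbicidal activity is scored visually on a 0–100% scale against untreated controls.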

ALOMY [13] = assay: Herbicidal post-emergence action (Table B2); type: in vivo, Alopecurus myosuroides; conditions: application rate 320 g/ha; rated visually after about 3 weeks
How it was run: as §2

KCHSC [14] = assay: Herbicidal post-emergence action (Table B4); type: in vivo, Kochia scoparia; conditions: application rate 1280 g/ha; rated visually after about 3 weeks
How it was run: as §2

LOLRI [15] = assay: Herbicidal post-emergence action (Table B5); type: in vivo, Lolium rigidum; conditions: application rate 1280 g/ha; rated visually after about 3 weeks
How it was run: as §2

MATIN [16] = assay: Herbicidal post-emergence action (Table B6); type: in vivo, Matricaria inodora; conditions: application rate 320 g/ha; rated visually after about 3 weeks
How it was run: as §2

POAAN [17] = assay: Herbicidal post-emergence action (Table B7); type: in vivo, Poa annua; conditions: application rate 320 g/ha
How it was run: as §2

SETVI [18] = assay: Herbicidal post-emergence action (Table B8); type: in vivo, Setaria viridis; conditions: application rate 1280 g/ha
How it was run: as §2

STEME [19] = assay: Herbicidal post-emergence action (Table B9); type: in vivo, Stellaria media; conditions: application rate 1280 g/ha
How it was run: as §2

VERPE [20] = assay: Herbicidal post-emergence action (Table B10); type: in vivo, Veronica persica; conditions: application rate 320 g/ha
How it was run: as §2

AMARE = assay: Herbicidal post-emergence action (Table B11); type: in vivo, Amaranthus retroflexus; conditions: application rate 1280 g/ha
How it was run: as §2

ALOMY [21] = assay: Herbicidal pre-emergence action, section C (Table C2); type: in vivo, Alopecurus myosuroides; conditions: application rate 320 g/ha; visual grading after ca. 3 weeks
DIGSA [22] = assay: Herbicidal pre-emergence action, section C (Table C5); type: in vivo, Digitaria sanguinalis; conditions: application rate 80 g/ha; visual grading after ca. 3 weeks
Excerpt: Seeds of mono- and dicotyledonous weed plants and crop plants were sown, in plastic or organic planting pots, in sandy loam and covered with soil. The compounds according to the invention, formulated in the form of wettable powders (WP) or as emulsifiable concentrates (EC), were applied to the surface of the covering soil as aqueous suspension or emulsion, with the addition of 0.5% of an additive, at an application rate of 600 1 of water/ha (converted). Following treatment, the pots were placed in a greenhouse and kept under optimum growth conditions for the test plants.

ECHCG [23] = assay: Herbicidal pre-emergence action, section C (Table C6); type: in vivo, Echinochloa crus-galli; conditions: application rate 80 g/ha; visual grading after ca. 3 weeks
LOLRI [24] = assay: Herbicidal pre-emergence action, section C (Table C7); type: in vivo, Lolium rigidum; conditions: application rate 320 g/ha; visual grading after ca. 3 weeks
MATIN [25] = assay: Herbicidal pre-emergence action, section C (Table C8); type: in vivo, Matricaria inodora; conditions: application rate 320 g/ha; visual grading after ca. 3 weeks
SETVI [26] = assay: Herbicidal pre-emergence action, section C (Table C10); type: in vivo, Setaria viridis; conditions: application rate 80 g/ha; visual grading after ca. 3 weeks
VERPE [27] = assay: Herbicidal pre-emergence action, section C (Table C11); type: in vivo, Veronica persica; conditions: application rate 320 g/ha; visual grading after ca. 3 weeks
VIOTR = assay: Herbicidal pre-emergence action, section C (Table C12); type: in vivo, Viola tricolor; conditions: application rate 320 g/ha; visual grading after ca. 3 weeks
ALOMY [28] = assay: Herbicidal post-emergence action, section E (Table E2); type: in vivo, Alopecurus myosuroides; conditions: application rate 320 g/ha; assessed visually after ca. 3 weeks
Excerpt: (§3) 2 to 3 weeks after sowing, the test plants were sprayed in the single-leaf stage.

ECHCG [29] = assay: Herbicidal post-emergence action, section E (Table E5); type: in vivo, Echinochloa crus-galli; conditions: application rate 320 g/ha; assessed visually after ca. 3 weeks
Excerpt: as §3

LOLRI [30] = assay: Herbicidal post-emergence action, section E (Table E6); type: in vivo, Lolium rigidum; conditions: application rate 320 g/ha; assessed visually after ca. 3 weeks
Excerpt: as §3

SETVI [31] = assay: Herbicidal post-emergence action, section E (Table E8); type: in vivo, Setaria viridis; conditions: application rate 320 g/ha; assessed visually after ca. 3 weeks
Excerpt: as §3

VERPE [32] = assay: Herbicidal post-emergence action, section E (Table E9); type: in vivo, Veronica persica; conditions: application rate 320 g/ha; assessed visually after ca. 3 weeks
Excerpt: as §3

ZEAMX = assay: Post-emergence effects on crop plants (Table F1); type: in vivo, Zea mays; conditions: application rate 320 g/ha, crop plant ZEAMX
Excerpt: as §3

TRZAS = assay: Post-emergence effects on crop plants (Table F2); type: in vivo, Triticum aestivum; conditions: application rate 80 g/ha, crop plant TRZAS
Excerpt: as §3

ORYZA = assay: Post-emergence effects on crop plants (Table F3); type: in vivo, Oryza sativa; conditions: application rate 80 g/ha, crop plant ORYZA
Excerpt: as §3

BRSNW = assay: Post-emergence effects on crop plants (Table F5); type: in vivo, Brassica napus; conditions: application rate 320 g/ha, crop plant BRSNW
Excerpt: as §3

SMILES: O=C1N(Cc2cccc(F)c2F)CCCC12CCCN(Cc1c(F)cccc1F)C2=O (racemic) [I-008, 8-[(2,3-difluorophenyl)methyl]-2-[(2,6-difluorophenyl)methyl]-2,8-diazaspiro[5.5]undecane-1,7-dione]
- pre-emergence activity against ABUTH (ABUTH [1]): 90%
- pre-emergence activity against ECHCG (ECHCG [2]): 100%
- pest or weed control at 320 g/ha (LOLRI [3]): 100%
- pre-emergence activity against MATIN (MATIN [4]): 100%
- pre-emergence activity against SETVI (SETVI [5]): 100%
- pre-emergence activity against STEME (STEME [6]): 90%
- pest or weed control at 320 g/ha (POAAN [7]): 100%
- pre-emergence activity against ALOMY (ALOMY [8]): 90%
- pre-emergence activity against KCHSC (KCHSC [9]): 90%
- pre-emergence activity against VERPE (VERPE [10]): 90%
- pre-emergence activity against DIGSA (DIGSA [11]): 100%
- post-emergence activity against ABUTH (ABUTH [12]): 90%
- post-emergence activity against ALOMY (ALOMY [13]): 90%
- post-emergence activity against KCHSC (KCHSC [14]): 90%
- post-emergence activity against LOLRI (LOLRI [15]): 100%
- post-emergence activity against MATIN (MATIN [16]): 90%
- post-emergence activity against POAAN (POAAN [17]): 90%
- post-emergence activity against SETVI (SETVI [18]): 90%
- post-emergence activity against STEME (STEME [19]): 90%
- post-emergence activity against VERPE (VERPE [20]): 90%
- post-emergence activity against AMARE (AMARE): 90%
- pre-emergence activity against ALOMY (ALOMY [21]): 90%
- pre-emergence activity against DIGSA (DIGSA [22]): 100%
- pre-emergence activity against ECHCG (ECHCG [23]): 100%
- pre-emergence activity against LOLRI (LOLRI [24]): 90%
- pre-emergence activity against MATIN (MATIN [25]): 80%
- pre-emergence activity against SETVI (SETVI [26]): 100%
- pre-emergence activity against VERPE (VERPE [27]): 80%
- pre-emergence activity against VIOTR (VIOTR): 80%
- post-emergence activity against ALOMY (ALOMY [28]): 90%
- post-emergence activity against ECHCG (ECHCG [29]): 90%
- post-emergence activity against LOLRI (LOLRI [30]): 90%
- post-emergence activity against SETVI (SETVI [31]): 90%
- post-emergence activity against VERPE (VERPE [32]): 80%
- post-emergence activity against ZEAMX (ZEAMX): 0%
- post-emergence activity against TRZAS (TRZAS): 0%
- post-emergence activity against ORYZA (ORYZA): 0%
- post-emergence activity against BRSNW (BRSNW): 0%
